These are literature values, as cited in patent publication US20230158012A1, “ORAL LIQUID FORMULATIONS OF LENVATINIB” (SHILPA MEDICARE LIMITED, priority 2020, published 2023).

The conditions of this data set: 5% w/w aqueous solution or suspension.

Take `O=C1O[C@H](CO)[C@@H](O)[C@H](O)[C@H]1O` [Gluconolactone]: the pH value is given as 2.40.

As to `O=P([O-])([O-])O.[K+].[K+]` [dipotassium hydrogenphosphate], the pH value is reported as 9.11.

Turning to `O=P([O-])([O-])O.[Na+].[Na+]` [disodium hydrogenphosphate], the pH value is recorded as 9.26.

`NCC(=O)O` [glycine]: the pH value is on record as 6.17.

As to `[O]=[Mg]` [magnesium oxide], the pH value is reported as 10.63.

In the case of `CC(=O)[O-].[Na+]` [sodium acetate], the pH value is 8.46.

For `O=C([O-])[O-].[Na+].[Na+]` [sodium carbonate], the pH value is reported as 11.45.

As for `O=C([O-])CC(O)(CC(=O)[O-])C(=O)[O-].[Na+].[Na+].[Na+]` [sodium citrate], the pH value is recorded as 8.22.

As to `O=C([O-])O.[Na+]` [sodium hydrogencarbonate], the pH value was 8.15.

With `[Na+].[OH-]` [sodium hydroxide], the pH value is on record as 13.56.
